Results as given in PubChem BioAssay (NCI).
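Five concentrations, 48 hours, 96-well plates. Definition used: TGI = concentration required for complete inhibition of growth.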

How the values were obtained:
Assay in all cases: inhibition of tumour cell growth, NCI panel, 48 h
OVCAR-4 ovarian = tested on: OVCAR-4 ovarian
CCRF-CEM leukemia = tested on: CCRF-CEM leukemia
786-0 renal = tested on: 786-0 renal
NCI-H23 lung = tested on: NCI-H23 lung
PC-3 prostate = tested on: PC-3 prostate
EKVX NSCLC = tested on: EKVX NSCLC
OVCAR-8 ovarian = tested on: OVCAR-8 ovarian
HOP-62 NSCLC = tested on: HOP-62 NSCLC
A498 renal = tested on: A498 renal
KM12 colon = tested on: KM12 colon
BT-549 breast = tested on: BT-549 breast
MDA-MB-435 = tested on: MDA-MB-435
MCF7 breast = tested on: MCF7 breast
HL-60(TB) leukemia = tested on: HL-60(TB) leukemia
RPMI-8226 leukemia = tested on: RPMI-8226 leukemia
HS 578T breast = tested on: HS 578T breast
IGROV1 ovarian = tested on: IGROV1 ovarian
NCI-H522 lung = tested on: NCI-H522 lung
HT29 colon = tested on: HT29 colon
RXF 393 renal = tested on: RXF 393 renal

Row | Structure (SMILES) | TGI (OVCAR-4 ovarian) [µM] | TGI (CCRF-CEM leukemia) [µM] | TGI (786-0 renal) [µM] | TGI (NCI-H23 lung) [µM] | TGI (PC-3 prostate) [µM] | TGI (EKVX NSCLC) [µM] | TGI (OVCAR-8 ovarian) [µM] | TGI (HOP-62 NSCLC) [µM] | TGI (A498 renal) [µM] | TGI (KM12 colon) [µM] | TGI (BT-549 breast) [µM] | TGI (MDA-MB-435) [µM] | TGI (MCF7 breast) [µM] | TGI (HL-60(TB) leukemia) [µM] | TGI (RPMI-8226 leukemia) [µM] | TGI (HS 578T breast) [µM] | TGI (IGROV1 ovarian) [µM] | TGI (NCI-H522 lung) [µM] | TGI (HT29 colon) [µM] | TGI (RXF 393 renal) [µM]
1 | C=CCN1C(=O)/C(=C\c2cc(C(C)(C)C)c(O)c(C(C)(C)C)c2)NC1=S | > 100 | 20.4 | 55.7 | 94 | 42 | 65.1 | > 100 | 51.5 | 90.8 | 72.6 | > 100 | 70.8 | 90.5 | 25.1 | > 100 | > 100 | > 100 | 27.8 | 80.7 | 
2 | CCOP(=O)(OCC)/C(=C/NC(=S)c1ccncc1)C(=O)OC | > 100 | 64.8 | > 100 | > 100 | > 100 | > 100 | > 100 | > 100 |  | > 100 | > 100 | > 100 | > 100 | > 100 | > 100 | > 100 | > 100 | > 100 | > 100 | > 100
3 | Clc1ccc(OCc2nnc(CCCCCCCCc3nnc(COc4ccc(Cl)cc4Cl)n3Nc3ccccc3)n2Nc2ccccc2)c(Cl)c1 | 59.5 |  | 31.2 | 51 | 34.8 | > 68.3 | 50.3 | 18.2 | 55.6 | 25.6 | 49.7 | 19.5 | 45.6 |  | 16.9 | 31.4 | 47.7 | 24.7 | 35.8 | 40.8
4 | CN(C)CCCNc1ccc2c(=O)n(CCN(C)C)c(=O)n3c4ccccc4c(=O)c1c23 | 4.35 | > 100 | 0.752 | 1.19 | 1.81 | 3.02 | 3.59 | 5.91 | 5.35 | 1.4 | 0.369 | 0.885 | 0.565 |  | 0.595 | 15.7 | 4.33 | 0.385 | 0.907 | 2.58
5 | O=C1/C(=C/c2ccc(OC(=O)c3ccccc3)cc2)CCC/C1=C\c1ccc(OC(=O)c2ccccc2)cc1 | > 100 | > 100 | > 100 | > 100 | > 100 | > 100 | > 100 | > 100 |  | > 100 | > 100 | > 100 | > 100 | > 100 | > 100 | > 100 | > 100 | > 100 | > 100 | 
6 | COc1cc(C2SCC(=O)N2c2ccc(-n3c(-c4ccccc4)nc4ccccc4c3=O)cc2)cc(OC)c1OC (centres undefined) | > 100 | > 100 | > 100 | > 100 | > 100 | > 100 | > 100 | > 100 | > 100 | > 100 | > 100 | > 100 | > 100 | > 100 | > 100 | > 100 | > 100 | > 100 | > 100 | 
7 | Nc1nc(Cl)c(/C=N\O)c(NCC2(CO)CCC2)n1 | > 100 | > 100 | > 100 | > 100 | > 100 | > 100 | > 100 | > 100 | > 100 | 18.3 | > 100 | > 100 | > 100 |  | > 100 | > 100 |  | > 100 | > 100 | > 100
8 | Cc1c(CCN2CCOCC2)c(N2CCOCC2)n2c(nc3ccccc32)c1C#N | > 10 | > 10 | > 10 | > 10 | > 10 | > 10 | > 10 | > 10 | > 10 | > 10 | > 10 | > 10 | > 10 | > 10 | > 10 | > 10 | > 10 |  | > 10 | > 10
9 | CCO/C=N\c1c(C#N)c(-c2ccc(Cl)cc2)cn1-c1ccc(C)cc1 | > 100 | > 100 | > 100 | > 100 | > 100 | > 100 | > 100 | > 100 | > 100 |  | > 100 | > 100 | > 100 | > 100 |  | > 100 | > 100 | > 100 | > 100 | > 100
10 | N#CC1C(=O)SC2c3ccccc3C(=O)c3ccccc3C12 (centres undefined) | > 10 | > 10 | > 10 | > 10 | > 10 | > 10 | > 10 | > 10 | > 10 | > 10 | > 10 | > 10 | > 10 | > 10 | > 10 | > 10 | > 10 |  | > 10 | > 10
11 | CC1(C)CC2=C(Sc3ccccc3N2)C(=O)C1C(=O)C(=O)Nc1cccc([N+](=O)[O-])c1 (centres undefined) | > 100 | > 100 | > 100 | > 100 | > 100 | > 100 | > 100 |  | > 100 | > 100 | > 100 | > 100 | > 100 | > 100 | > 100 | > 100 | > 100 | > 100 | > 100 | 
12 | CC1CN=C(Nc2ccccc2)S1 (centres undefined) |  | > 100 | > 100 | > 100 | > 100 | > 100 | > 100 | > 100 | > 100 | > 100 | > 100 | > 100 | > 100 | > 100 | > 100 | > 100 | > 100 | > 100 | > 100 | > 100
13 | COc1ccc(S(=O)(=O)NC(CCC(=O)NN)C(=O)NN)cc1 (centres undefined) | > 100 | > 100 | > 100 | > 100 | > 100 | > 100 | > 100 | > 100 | > 100 | > 100 | > 100 | > 100 | > 100 | > 100 | > 100 | > 100 | > 100 | > 100 | > 100 | 
14 | c1ccc(N=C(Nc2ccccc2)N2CCCC2)cc1 | > 100 | > 100 | > 100 | > 100 | > 100 | > 100 | > 100 | > 100 |  | > 100 | > 100 | > 100 | > 100 | > 100 | > 100 | > 100 | > 100 | > 100 | > 100 | 
15 | COC(=O)c1ccccc1C1CN=NC12Cc1ccccc1C2=O (centres undefined) | > 100 | > 100 | > 100 | > 100 | > 100 | > 100 | > 100 | > 100 |  | > 100 | > 100 | > 100 | > 100 | > 100 | > 100 | > 100 | > 100 | > 100 | > 100 | > 100
16 | CCN(CC)CCC(=O)c1ccc(C)cc1 | 50.1 | 31.2 | 34.3 | 48.1 | > 100 | 86.8 | > 100 | > 100 | 67.2 |  | 37.6 | 33.6 | 17.4 | > 100 |  | > 100 | 37.6 | 32.7 | 49.6 | 31.1
17 | Cc1cc(C)c(S(=O)(=O)N2CCCN(S(=O)(=O)c3c(C)cc(C)cc3C)OCCCO2)c(C)c1 | > 100 | > 100 | > 100 | > 100 | > 100 | > 100 | > 100 | > 100 | > 100 | > 100 | > 100 | > 100 | > 100 | > 100 |  | > 100 | > 100 | > 100 | > 100 | > 100
18 | COC(=O)c1ccc(NC(=O)O/N=C(\Cl)C(C)C)cc1 | 32 |  | 4.35 | 39.3 | 31.1 | 10.9 | 32.5 | 32.9 | 37.6 | 30.2 | 8.94 | 25.5 | 19.1 | 3.66 | 4.47 | > 66.7 | 27.6 | 1.74 | 29.4 | 19.6
19 | Nc1nc2c(c(=O)[nH]1)C(c1ccccc1)CC(=O)N2 (centres undefined) | > 100 |  | > 100 | > 100 | > 100 | > 100 | > 100 | > 100 | > 100 | > 100 | > 100 | > 100 | > 100 |  | > 100 | > 100 | > 100 |  | > 100 | 
20 | CSC1=Nc2ccccc2-c2nc3ccccc3cc2C1 | > 100 | > 100 | > 100 | > 100 | > 100 | > 100 | > 100 | > 100 | > 100 | > 100 | > 100 | > 100 | > 100 | > 100 |  | > 100 | > 100 | > 100 | > 100 | > 100
21 | N#Cc1c(=O)c2ccccc2n2c1[nH]c1ccccc12 | > 100 | 79.6 | > 100 | > 100 | > 100 | > 100 | > 100 | > 100 | > 100 | > 100 | > 100 | > 100 | > 100 | > 100 | > 100 | > 100 | > 100 |  | > 100 | > 100
22 | C/C(=N\n1c(Cc2ccccc2)n[nH]c1=O)c1ccccc1 | > 100 | > 100 | > 100 | > 100 | > 100 | > 100 | > 100 |  | > 100 | > 100 | > 100 | > 100 | > 100 | > 100 | > 100 | > 100 | > 100 | > 100 | > 100 | > 100
23 | COc1cccc(/C=C2\CCCc3ccccc3C2=O)c1 | 28.5 | 35.3 | 27.4 | 32.6 | 38.6 | 50.2 | 51.5 | 31 |  | 38.8 | 39.3 | 30.1 | 51.6 | 35 | 64.1 | 41.4 | 46.3 | 40.3 | 52.3 | 
24 | COc1cccc2c1CCc1c(-c3ccc(F)cc3)cc(-c3ccc4ccccc4n3)nc1-2 | > 100 | > 100 | > 100 | > 100 | > 100 | > 100 | > 100 | > 100 | > 100 | > 100 | > 100 | > 100 | > 100 |  | > 100 | > 100 | > 100 | > 100 | > 100 | > 100
25 | CCC(C(=O)C(=O)C(CC)P1(=O)OC(C)(C)CN1C(C)(C)C)P1(=O)OC(C)(C)CN1C(C)(C)C (centres undefined) |  | > 100 | > 100 | > 100 | > 100 | > 100 | > 100 | > 100 | > 100 | > 100 | > 100 | > 100 | > 100 | > 100 | > 100 | > 100 | > 100 | > 100 | > 100 | > 100
